Marks after values point to notes of the source that are not given here.
Experiments:
FAR-1 = assay: Fluorescence titration, FAR•analyte complex formation in homogeneous solution; format: binding
Description: (§1) Fluorescence titrations were carried out in aqueous HEPES buffer (10 mM, pH 7, 22 °C) unless stated otherwise. To a solution of the FAR (typically at 10–30 μM) was stepwise added a solution of the analyte (typically up to 2 mM) and the fluorescence spectra were recorded. The normalized emissions at 450 nm (FAR-1) or at 370 nm (FAR-2) were fitted with an equation for a 1 : 1 binding by a least-square fit. The resulting affinity constants are reported in Supplementary Table 1. Representative titration plots are shown in Supplementary Fig. 1. Note that the high CB8-dye binding affinities correspond to a near quantitative degree of host-dye complexation, i.e., quantitative formation of the FAR, such that the subsequent binding of the analyte can be treated independently.

[1] = Dye displacement membrane assay (liposome-encapsulated host•dye ensembles)
Description: Supplementary Figure 13 | Graphical representation of membrane assays using dye displacement for signaling. Diffusion of analytes through a lipid membrane is detected by displacement of the dye from (a) a host•dye or (b) a host•dye•quencher complex, leading to reduction or enhancement in emission intensity.
Supplementary Figure 14 | Membrane permeation monitoring of analytes by dye displacement. (a) Time-resolved changes in fluorescence intensity of CB7•BE-loaded liposomes (λexc = 347 nm, λobs = 500 nm) upon addition of the membrane-permeable analyte tyramine and membrane destabilizing peptide melittin.
(b) Evolution of fluorescence intensity after addition of dimethylbenzylamine (DMBA) to CB7•PAL-loaded liposomes (λexc = 347 nm, λobs = 500 nm). (c) Fluorescence response after addition of the […]
tryptophan to liposomes loaded with CB8•MV•2,6-ANS (λexc = 380 nm, λobs = 463 nm). […]
Combing equations S1 and S2, one arrives at Papp = kp∙(r/3) = kobs/canalyte∙cFAR∙(r/3) (equation 1 in main text)
Dye displacement membrane assay
Dye displacement membrane assays rely on selective encapsulation of reporter pairs inside liposomes and the reversible interaction between the receptor and the translocated analyte. To conduct the assay, liposomes containing the chemosensing ensemble composed of a macrocyclic host and a dye are prepared and purified, such that a subsequently added analyte affects the dye fluorescence only if it can enter the vesicle and displaces the dye from the macrocycle. Until now, only the dye displacement has been used as the signaling mechanism for tandem membrane assays,3, 4 whereby the competitive displacement of the dye from such host•dye complexes upon analyte addition restores the fluorescence features of the dye in solution, Supplementary Figures 13 - 14.
Specifically, this signaling mechanism has been mostly employed with macrocyclic host s with cavity space that is capable o f forming 1:1 complex es, e.g., cucurbit[7]uril (CB7) and the dyes berberine (BER) or palmatine (PAL), see Supplementary Figure 13a, or with p-sulfonato calix[4]arene (CX4) and lucigenin.3,4 Expanding the repertoire of chemosensors for tandem membrane assay s, we exploit herein also the ability of a larger macrocyclic host such as cucurbit[8]uril (CB8) to form 1:1:1 ternary complexes,5-7 and utilize here the quencher methyl viologen (MV) in combination with the fluorescent dyes 5-hydroxy tryptophan (5HO-Trp), 2-anilinonaphthalene -6-sulfonic acid (2,6-ANS) or dapoxyl sulfonic acid, sodium salt (DapoxS), Supplementary Figure 13b. Upon addition of an analyte, the fluorescent dye, the quencher or both the fluorescent dye and quencher are displaced from the CB8 cavity, which in each case is reflected by an increase in the emission intensity of the dye (switch -on displacement assay), Supplementary Figures 14- […]
The dye displacement signal strategy has two important disadvantages compared to the preferred fluorescent artificial receptor (FAR) assays:
(i) The dye displacement strategy is limited to strongly binding analytes, i.e., K(analyte) ≥ K(dye), otherwise a large excess concentration of analyte is needed to generate significant

FAR-2 = assay: Fluorescence titration, FAR•analyte complex formation in homogeneous solution; details: 10 mM HEPES buffer (pH 7), 1:1 binding model, error estimate ≤ 20%
Description: as §1, with “1.” for “1. Note that the high CB8-dye binding affinities correspond to a near quantitative degree of host-dye complexation, i.e., quantitative formation of the FAR, such that the subsequent binding of the analyte can be treated independently.”

[2] = Description: Supplementary Table 3 | Qualitative assessment of membrane permeability for more tha n 90 different organic compoundsa investigated by the FARMA-assay with receptors FAR-1, FAR-2, and FAR-3, and, for comparison, investigations by the dye displacement signal generation strategy with the sensing ensembles (CB8•MV•2,6-ANS, CB8•MV•5HO-Trp, CB7•BE, and CB7•PAL). […]
a See also Fig. 2 in main text for chemical structures. b λexc = 400 nm, λobs = 450 nm. c λexc = 310 nm, λobs = […]
ethanol (10 mM stock). m Emerging excimer band at λobs = 500 nm was monitored. n Control experiment in the absence of host (CB8) was also carried out. o λobs = 500 nm was chosen to by-pass the self-fluorescence

[3] = PAMPA; cited from earlier work
in vitro = assay: in vitro
Description: Elementary physical parameters, such as permeability coefficients, can be extracted from the full kinetic FARMA data. This kinetic profile → parameter mapping requires some assumptions to be made in regard to the permeation mechanism. We applied a reported permeation model for liposomes[31] to arrive at permeation rate constants (kp) and apparent permeability coefficients (Papp). The derivation of the mathematical relation (1), linking the fundamental permeability rate constant and permeability coefficient to experimental measurable kobs rate constants, the known total analyte and total FAR concentration, and the experimentally determined liposome radius (r), is shown in the Supplementary Information.1 Papp=kp⋅r/3=kobs/canalyte⋅cFAR⋅r/3 […]
The volume-to-surface correction factor r/3 accounts for the fact that the observed rates depend on the size, i.e., radius r, of the liposomal assembly. […] The initial-rate method can also be applied, see the Supplementary Information. Moreover, kobs/canalyte can be estimated by single-point measurements at selected canalyte concentration.
A solution of 2.5 mg/mL of POPC and 0.33 mg/mL of POPS in chloroform was purged with nitrogen and dried overnight under […] vacuum. […] The resulting FAR-loaded liposomes were separated from non-encapsulated species by size-exclusion chromatography (NAP-25 column), while maintaining the same buffer. The absence of non-encapsulated FAR was confirmed by adding a non-membrane-permeable species such as tryptophan to a fluorescence cuvette containing 25 µL of liposomes diluted in 1 mL HEPES (10 mM) buffer. Complete removal of non-encapsulated FAR is indicated by the absence of a significant fluorescence change upon Trp addition.
In a typical experiment, 20 µL of liposome solution loaded with FAR was diluted in 1 mL HEPES buffer (10 mM, pH 7.0) in a 1 mL quartz cuvette. An emission spectrum was recorded after 10 min of “equilibration time” on a Varian Eclipse spectrofluorometer thermostated at 22 °C with a water bath using λexc = 400 nm for FAR-1, λexc = 310 nm for FAR-2, and λexc = 330 nm for FAR-3. In the time-resolved experiments, the emission intensity at λobs = 450 nm for FAR-1, λobs = 370 nm for FAR-2, and λobs = 370 and 500 nm for FAR-3 (the latter is the emerging excimer band for certain FAR-3•analyte complexes) was recorded with an averaging time of 0.5 s. […] For single-point experiments, a full spectrum was recorded after a fixed time or several time intervals after analyte addition. […] Only FAR-analyte combinations were used for FARMA, for which no significant autofluorescence and competitive light absorption of the analyte occurred.
For each experiment, measurements from 6 injections were accumulated and the average of these traces was used for data analysis.
Calculation of the unimolecular permeation rate constants ( kp) and of the apparent permeability coefficients (Papp).
The passive diffusion (permeation) of small non-charged compounds follows a modified Fick’s law and can be expressed by a first order kinetics.1 Similar to first order chemical reactions, the kinetics curve can therefore be fitted monoexponentially to obtained the observed permeation rates (kobs). In our assay set-up, such an exponential fit is an approximation, since it neglects that a certain fraction of transported analyte is bound to the FAR and cannot exit the liposome. Nevertheless, the fit of the kinetic curves of the […]
approximation is justified.

[4] = FAR-1, 10 mM HEPES buffer (pH 7), 1:1 binding model, error estimate ≤ 20%
[5] = dye displacement, CB7•BE-, CB8•MV•5OH-Trp- or CB8•MV•2,6-ANS-loaded liposomes
[6] = FARMA with FAR-loaded liposomes or GUVs
[7] = monoexponential fit, analyte 40 µM (bulk), FAR-2 ca. 500 µM in the liposome interior, 20% error

## CC(C)NCC(O)COc1cccc2ccccc12 (stereo not drawn) [propranolol, reference compound]
FAR-1; [4]
  Ka: 3 10^3 M−1
[1]; [5]
  membrane permeability (in words): membrane permeable

## N[C@@H](Cc1ccccc1)C(=O)O [Phe, phenylalanine]
FAR-1; [4]
  Ka: 5 10^3 M−1
[1]; [5]
  membrane permeability (in words): membrane impermeable

## CCOc1ccc(O)cc1 [4-ethoxyphenol]
FAR-2
  Ka: 1.0 10^3 M−1
FAR-1; [4]
  Ka: 1 10^3 M−1

## N#Cc1ccc(O)cc1 [4CN-phenol, 4-cyanophenol]
FAR-2
  Ka: 5.2 10^3 M−1
[2]
  Qualitative assessment of membrane permeability: +
[3]
  Papp Literature: 17 10^−6 cm s^−1
In vitro; not told, pH 7
  kobs: 40
  log(kobs): 1.602

## Oc1ccc(O)cc1 [1,4-dihydroxybenzene]
FAR-2
  Ka: 2.9 10^3 M−1

## c1ccc2ccccc2c1 [naphthalene]
FAR-1; [4]
  Ka: > 50 10^3 M−1
In vitro; [6]
  membrane permeability (in words): permeating

## O=C1CCC(=O)N1c1ccccc1 [N-phenylsuccinimide]
FAR-1; [4]
  Ka: 30 10^3 M−1
In vitro; [7]
  kobs: 1.1 s–1
In vitro; source data of Fig. 5
  kobs: 1.1
  log(kobs): 0.04139

## NCCc1ccc(O)c(O)c1 [dopamine]
FAR-1; [4]
  Ka: 0.10 10^3 M−1
In vitro; [6]
  membrane permeability (in words): very slowly permeating

## CNC[C@H](O)c1ccc(O)c(O)c1 [adrenaline]
FAR-1; [4]
  Ka: < 1 10^3 M−1
In vitro; [6]
  membrane permeability (in words): very slowly permeating

## Nc1ccccc1 [Aniline, aniline]
FAR-2
  Ka: 25 10^3 M−1
FAR-1; [4]
  Ka: 33 10^3 M−1
[3]
  Papp Literature: 76 10^−6 cm s^−1
In vitro; [7]
  kobs: 7.5 s–1
In vitro; not told, pH 7
  kp: 9400^f
In vitro; source data of Fig. 5
  kobs: 7.5
  log(kobs): 0.8751

## N#Cc1ccccc1O [2CN-phenol, 2-cyanophenol]
FAR-2
  Ka: 5.8 10^3 M−1
In vitro; [7]
  kobs: 10 s–1
In vitro; source data of Fig. 5
  kobs: 10
  log(kobs): 1

## NCCCCCN [cadaverine]
[1]; [5]
  membrane permeability (in words): membrane impermeable

## COc1ccc(B(O)O)cc1 [p-anisylboronic acid]
FAR-2
  Ka: 4.8 10^3 M−1

## O=C(O)C1C2CC3CC(C2)CC1C3 (stereo not drawn) [2-adamantyl-carboxylate]
[1]
  membrane permeability (in words): membrane-permeable, albeit at a slower rate

## Oc1ccc2ccccc2c1 [2-naphthol]
[2]
  Qualitative assessment of membrane permeability: +
In vitro
  membrane permeability (in words): permeable

## COC(=O)[C@@H](N)Cc1c[nH]c2ccccc12 [TrpOMe, tryptophan methyl ester]
FAR-1; [4]
  Ka: 14 10^3 M−1
In vitro; [6]
  membrane permeability (in words): rather quickly permeating

## NCCCNCCCCNCCCN [spermine]
[1]; [5]
  membrane permeability (in words): membrane impermeable

## COc1ccc(O)cc1 [4-methoxyphenol]
FAR-2
  Ka: 2.4 10^3 M−1

## Cc1ccc(C)cc1 [p-xylene, 1,4-dimethylbenzene]
[2]
  Qualitative assessment of membrane permeability: +
In vitro; [7]
  kobs: 17 s–1
In vitro; source data of Fig. 5
  kobs: 17
  log(kobs): 1.23

## Clc1ccccc1Cl [1,2-dichlorobenzene]
[2]
  Qualitative assessment of membrane permeability: +

## NC(=O)C(N)Cc1c[nH]c2ccccc12 (stereo not drawn) [TrpNH2, tryptophanamide]
FAR-1; [4]
  Ka: 460 10^3 M−1
[3]
  Papp Literature: 2.7 10^−6 cm s^−1

## Oc1ccccc1 [Phenol, phenol]
FAR-1; pH 7
  Ka: 56
[3]
  Papp Literature: 47
In vitro; not told, pH 7
  Papp: 112 ×10⁻⁶ cm/s
  kobs: 2.7 s–1
  log(kobs): 0.4314
  time of FARMA signal response (t): < 5 s

## OC[C@H]1O[C@@H](Oc2ccccc2)[C@H](O)[C@@H](O)[C@H]1O [phenyl-β-D-galactopyranoside]
FAR-1; [4]
  Ka: 30 10^3 M−1
In vitro; [6]
  membrane permeability (in words): slowly permeating
In vitro; slow response, without enzyme
  time of FARMA signal response (t): > 300 s

## CCc1ccc(O)cc1 [4Et-phenol, 4-ethylphenol]
FAR-1; [4]
  Ka: 1.2 10^3 M−1
In vitro; [7]
  kobs: 0.24 s–1
In vitro; source data of Fig. 5
  kobs: 0.24
  log(kobs): -0.6198

## CCC(=O)Nc1ccc(Cl)c(Cl)c1 [propanil]
FAR-1; [4]
  Ka: 8 10^3 M−1
In vitro; [7]
  kobs: 42 s–1
In vitro; source data of Fig. 5
  kobs: 42
  log(kobs): 1.623

## NCCc1ccc(O)cc1 [tyramine]
In vitro; [6]
  membrane permeability (in words): pass the membrane within several minutes to hours
[1]; [5]
  membrane permeability (in words): membrane-permeable

## O=C([O-])c1ccccc1.[Na+] [sodium benzoate]
FAR-2
  Ka: < 1 10^3 M−1
